In ChEMBL document CHEMBL1150827, “Pseudodestruxins A and B: new cyclic depsipeptides from the coprophilous fungus Nigrosabulum globosum” (2001):
Active and inactive are the calls of the source. The rule behind the calls is not given here. Non-standard residues stand in square brackets, D forms with d. Residues, ends and D or L forms follow the SMILES beside them. NMeI = CC[C@H](C)[C@H](NC)C(=O)O; Hica(2S) = CC(C)C[C@H](O)C(=O)O; NMeL = CN[C@@H](CC(C)C)C(=O)O; NMeV = CN[C@H](C(=O)O)C(C)C; βAla = NCCC(=O)O

Experiments:
Bacillus subtilis = assay: Antibacterial activity against Bacillus subtilis ATCC 6051 at 200 ug/disk by standard disk assay; type: functional; conditions: read-out: IZ
Candida albicans = assay: Antifungal activity against Candida albicans ATCC 90029 at 200 ug/disk by standard disk assay; type: functional; conditions: read-out: IZ
Sordaria fimicola [1] = assay: Antifungal activity against Sordaria fimicola NRRL 6459 assessed as inhibition of radial growth at 200 ug/disk by standard disk assay; type: functional
Ascobolus [2] = assay: Antifungal activity against Ascobolus furfuraceus NRRL 6460 assessed as inhibition of radial growth at 200 ug/disk by standard disk assay; type: functional
Staphylococcus aureus = assay: Antibacterial activity against Staphylococcus aureus ATCC 29213 at 200 ug/disk by standard disk assay; type: functional; conditions: read-out: IZ
Sordaria fimicola [3] = assay: Antifungal activity against Sordaria fimicola NRRL 6459 at 200 ug/disk by standard disk assay; type: functional, organism-based
Ascobolus [4] = assay: Antifungal activity against Ascobolus furfuraceus NRRL 6460 at 200 ug/disk by standard disk assay; type: functional, organism-based
Helicoverpa zea = assay: Antiinsectan activity against Helicoverpa zea larvae at 100 ppm dietary level by dietary assay; type: functional, organism-based

Row | SMILES | zone of inhibition at 200 µg/disc (Bacillus subtilis) [mm] | zone of inhibition at 200 µg/disc (Candida albicans) [mm] | inhibition at 200 µg/disc (Sordaria fimicola [1]) [%] | inhibition at 200 µg/disc (Ascobolus [2]) [%] | zone of inhibition at 200 µg/disc (Staphylococcus aureus) [mm] | inhibition zone (IZ) (Sordaria fimicola [3]) | inhibition zone (IZ) (Ascobolus [4]) | Activity (Helicoverpa zea)
1 | CC(/C=C/[C@@]1(C)[C@H](C)CCC(=O)[C@@H]1C)=C\Cc1c(O)c(Cl)c(C)c(C=O)c1O [ASCOCHLORIN] | 12 | 24 | 62 | 33 | 11 | – | – | –
2 | CC[C@H](C)[C@H]1C(=O)N(C)[C@@H](CC(C)C)C(=O)NCCC(=O)O[C@@H](CC(C)C)C(=O)N2CCC[C@H]2C(=O)N[C@@H](Cc2ccccc2)C(=O)N1C [PSEUDODESTRUXIN A] (cyclo(F[NMeI][NMeL][βAla][Hica(2S)]P)) | 8 | – | – | – | – | inactive | inactive | inactive
3 | CC(C)C[C@@H]1OC(=O)CCNC(=O)[C@H](CC(C)C)N(C)C(=O)[C@H](C(C)C)N(C)C(=O)[C@H](Cc2ccccc2)NC(=O)[C@@H]2CCCN2C1=O [PSEUDODESTRUXIN B] (cyclo(F[NMeV][NMeL][βAla][Hica(2S)]P)) | 8 | – | – | – | – | inactive | inactive | –
